Data published in the NIST ThermoML archive (doi:10.1016/j.jct.2016.07.005).

Assay: refractive index (Na D-line) (dimensionless); xn = mol fraction of the nth substance listed
Settings: 100 kPa, Liquid, Standard Abbe refractometry

CN1CCC[C@H]1c1cccnc1 [(-)-3-(N-methylpyrrolidino)pyridine] + CCCCO
refractive index
Settings | x1 = 0.1 | x1 = 0.196 | x1 = 0.3 | x1 = 0.3931 | x1 = 0.5 | x1 = 0.593 | x1 = 0.7 | x1 = 0.7931 | x1 = 0.9 | x1 = 1
293.15 K | 1.42126 | 1.44053 | 1.45673 | 1.46978 | 1.48302 | 1.49254 | 1.50289 | 1.51169 | 1.51909 | 1.52665
298.15 K | 1.41913 | 1.43825 | 1.45448 | 1.46759 | 1.48076 | 1.49031 | 1.50065 | 1.50945 | 1.51685 | 1.52439
303.15 K | 1.41697 | 1.43598 | 1.45225 | 1.46538 | 1.47856 | 1.48808 | 1.49847 | 1.50721 | 1.51463 | 1.52214
308.15 K | 1.41481 | 1.43367 | 1.45 | 1.46318 | 1.4763 | 1.48583 | 1.49623 | 1.50495 | 1.51238 | 1.51988
313.15 K | 1.4127 | 1.43148 | 1.44779 | 1.46096 | 1.47404 | 1.48355 | 1.49404 | 1.5028 | 1.51035 | 1.5179
318.15 K | 1.41058 | 1.42931 | 1.44562 | 1.45876 | 1.47184 | 1.48131 | 1.49183 | 1.50058 | 1.50823 | 1.51592
323.15 K | 1.40842 | 1.42705 | 1.44337 | 1.45655 | 1.46958 | 1.47906 | 1.48961 | 1.49837 | 1.50604 | 1.51373
